Assay results reported in patent US20230139445A1, “BACTERIAL CELLS WITH IMPROVED TOLERANCE TO DIACIDS” (priority 2016, published 2023).
Read-outs that look alike come from different tables or passages of the source.

Experiments:
[1] = system: Escherichia coli K-12 MG1655 and evolved isolates; assay type: cell-based; details: 45 g/L itaconic acid
Method in brief: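 Wild-type MG1655 and evolved isolates, precultured overnight in M9 + 1% glucose at 37 °C, were diluted into M9 + 1% glucose. Growth at 37 °C, 225 rpm, scanned every 15 min; pixel values calibrated to OD600. Diacids tested as sodium salts or neutralized to pH 7.0.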

[2] = system: Escherichia coli K-12 MG1655; test: Growth of K-12 MG1655 in varying concentrations of fumaric, itaconic, malic and succinic acid, Growth Profiler; assay type: cell-based
Experimental: Five colonies from wild-type K-12 MG1655 and 10 individual colonies deriving from each population were inoculated into 300 μL M9+1% glucose in 96 well deepwell plates and incubated in a 300 rpm plate shaker at 37° C. The next day, cells were diluted 10× in M9+1% glucose and 30 μL was transferred into clear-bottomed 96 well half-deepwell plates (with rectangular wells) containing M9+1% glucose and M9+1% glucose+52.78 g/L glutaric acid or 55.56 g/L adipic acid, such that the final concentration of glutaric acid or adipic acid was 47.5 g/L or 50 g/L, respectively. In addition, cryogenic glycerol stocks of the overnight culture were saved in a 96 well plate format. Half deepwell plates were incubated at 37° C. with 225 rpm shaking in a Growth Profiler (Enzyscreen), with optical scans of the plates taken at 15 minute intervals. Green pixel values integrated over a 1 mm diameter circular area in each well were converted to OD600 values using a previously determined calibration between OD600 and green pixel values.
Additionally, each evolved isolate was tested for cross-tolerance toward other dicarboxylic acids of interest. […] All diacids tested were either the neutral sodium salts, or the free diacid was neutralized with sodium hydroxide to pH 7.0 for testing.

In the case of C=C(CC(=O)O)C(=O)O [itaconic acid], the “growth rate μ (mean)” value ([1]; strain ADIP1-1) is reported as 0.466 h⁻¹, the “lag time tlag (mean)” value ([1]; strain ADIP1-1) is reported as 8.3 h and the “growth rate μ (mean)” value ([1]; strain ADIP1-9) is reported as 0.434 h⁻¹. The “lag time tlag (mean)” value ([1]; strain ADIP1-9) was 8.7 h, the “growth rate μ (mean)” value ([1]; strain ADIP2-5) was 0.440 h⁻¹ and the “lag time tlag (mean)” value ([1]; strain ADIP2-5) was 8.3 h. The “growth rate μ (mean)” value ([1]; strain ADIP2-6) was 0.470 h⁻¹, the “lag time tlag (mean)” value ([1]; strain ADIP2-6) was 8.2 h and the “growth rate μ (mean)” value ([1]; strain ADIP2-10) was 0.438 h⁻¹. The “lag time tlag (mean)” value ([1]; strain ADIP2-10) was 8.3 h, the “growth rate μ (mean)” value ([1]; strain ADIP3-2) was 0.459 h⁻¹ and the “lag time tlag (mean)” value ([1]; strain ADIP3-2) was 7.9 h. For the same compound, the “growth rate μ (mean)” value ([1]; strain ADIP3-4) was 0.451 h⁻¹, the “lag time tlag (mean)” value ([1]; strain ADIP3-4) was 8.4 h and the “growth rate μ (mean)” value ([1]; strain ADIP3-8) was 0.433 h⁻¹. For the same compound, the “lag time tlag (mean)” value ([1]; strain ADIP3-8) was 8.5 h, the “growth rate μ (mean)” value ([1]; strain ADIP4-1) was 0.339 h⁻¹ and the “lag time tlag (mean)” value ([1]; strain ADIP4-1) was 11.2 h. For the same compound, the “growth rate μ (mean)” value ([1]; strain ADIP4-8) was 0.326 h⁻¹, the “lag time tlag (mean)” value ([1]; strain ADIP4-8) was 10.4 h and the “growth rate μ (mean)” value ([1]; strain ADIP5-2) was 0.354 h⁻¹. For the same compound, the “lag time tlag (mean)” value ([1]; strain ADIP5-2) was 9.4 h, the “growth rate μ (mean)” value ([1]; strain ADIP5-6) was 0.527 h⁻¹ and the “lag time tlag (mean)” value ([1]; strain ADIP5-6) was 7.2 h. The “growth rate μ (mean)” value ([1]; strain ADIP6-3) was 0.327 h⁻¹, the “lag time tlag (mean)” value ([1]; strain ADIP6-3) was 9.9 h and the “growth rate μ (mean)” value ([1]; strain ADIP6-9) was 0.337 h⁻¹. The “lag time tlag (mean)” value ([1]; strain ADIP6-9) was 10.3 h, the “growth rate μ (mean)” value ([1]; strain ADIP6-10) was 0.343 h⁻¹ and the “lag time tlag (mean)” value ([1]; strain ADIP6-10) was 9.1 h. For the same compound, the “growth rate μ (mean)” value ([1]; strain ADIP7-2) was 0.342 h⁻¹, the “lag time tlag (mean)” value ([1]; strain ADIP7-2) was 7.9 h and the “growth rate μ (mean)” value ([1]; strain ADIP7-5) was 0.402 h⁻¹. For the same compound, the “lag time tlag (mean)” value ([1]; strain ADIP7-5) was 8.6 h, the “growth rate μ (mean)” value ([1]; strain ADIP8-3) was 0.308 h⁻¹ and the “lag time tlag (mean)” value ([1]; strain ADIP8-3) was 11.7 h. For the same compound, the “growth rate μ (mean)” value ([1]; strain ADIP8-7) was 0.235 h⁻¹, the “lag time tlag (mean)” value ([1]; strain ADIP8-7) was 12.5 h and the “growth rate μ (mean)” value ([1]; strain ADIP8-10) was 0.290 h⁻¹. For the same compound, the “lag time tlag (mean)” value ([1]; strain ADIP8-10) was 11.3 h, the “growth rate μ (mean)” value ([1]; strain GLUT1-3) was 0.454 h⁻¹ and the “lag time tlag (mean)” value ([1]; strain GLUT1-3) was 10.2 h. The “growth rate μ (mean)” value ([1]; strain GLUT1-9) was 0.446 h⁻¹, the “lag time tlag (mean)” value ([1]; strain GLUT1-9) was 10.4 h and the “growth rate μ (mean)” value ([1]; strain GLUT1-10) was 0.446 h⁻¹. The “lag time tlag (mean)” value ([1]; strain GLUT1-10) was 18.1 h, the “growth rate μ (mean)” value ([1]; strain GLUT2-1) was 0.385 h⁻¹ and the “lag time tlag (mean)” value ([1]; strain GLUT2-1) was 10.8 h. For the same compound, the “growth rate μ (mean)” value ([1]; strain GLUT2-9) was 0.415 h⁻¹, the “lag time tlag (mean)” value ([1]; strain GLUT2-9) was 9.0 h and the “growth rate μ (mean)” value ([1]; strain GLUT2-10) was 0.494 h⁻¹. For the same compound, the “lag time tlag (mean)” value ([1]; strain GLUT2-10) was 8.8 h, the “growth rate μ (mean)” value ([1]; strain GLUT3-5) was 0.310 h⁻¹ and the “lag time tlag (mean)” value ([1]; strain GLUT3-5) was 12.0 h. The “growth rate μ (mean)” value ([1]; strain GLUT3-7) was 0.326 h⁻¹, the “lag time tlag (mean)” value ([1]; strain GLUT3-7) was 11.7 h and the “growth rate μ (mean)” value ([1]; strain GLUT3-9) was 0.257 h⁻¹. The “lag time tlag (mean)” value ([1]; strain GLUT3-9) was 14.5 h, the “growth rate μ (mean)” value ([1]; strain GLUT4-1) was 0.414 h⁻¹ and the “lag time tlag (mean)” value ([1]; strain GLUT4-1) was 11.7 h. For the same compound, the “growth rate μ (mean)” value ([1]; strain GLUT4-4) was 0.339 h⁻¹, the “lag time tlag (mean)” value ([1]; strain GLUT4-4) was 13.4 h and the “growth rate μ (mean)” value ([1]; strain GLUT4-10) was 0.328 h⁻¹. The “lag time tlag (mean)” value ([1]; strain GLUT4-10) was 13.5 h, the “growth rate μ (mean)” value ([1]; strain GLUT5-4) was 0.398 h⁻¹ and the “lag time tlag (mean)” value ([1]; strain GLUT5-4) was 15.2 h. For the same compound, the “growth rate μ (mean)” value ([1]; strain GLUT5-5) was 0.368 h⁻¹, the “lag time tlag (mean)” value ([1]; strain GLUT5-5) was 11.4 h and the “growth rate μ (mean)” value ([1]; strain GLUT5-9) was 0.438 h⁻¹. The “lag time tlag (mean)” value ([1]; strain GLUT5-9) was 22.5 h, the “growth rate μ (mean)” value ([1]; strain GLUT6-4) was 0.360 h⁻¹ and the “lag time tlag (mean)” value ([1]; strain GLUT6-4) was 11.3 h. The “growth rate μ (mean)” value ([1]; strain GLUT6-5) was 0.420 h⁻¹, the “lag time tlag (mean)” value ([1]; strain GLUT6-5) was 10.6 h and the “growth rate μ (mean)” value ([1]; strain GLUT6-10) was 0.502 h⁻¹. The “lag time tlag (mean)” value ([1]; strain GLUT6-10) was 10.5 h, the “growth rate μ (mean)” value ([1]; strain GLUT7-2) was 0.441 h⁻¹ and the “lag time tlag (mean)” value ([1]; strain GLUT7-2) was 10.6 h. The “growth rate μ (mean)” value ([1]; strain GLUT7-6) was 0.293 h⁻¹, the “lag time tlag (mean)” value ([1]; strain GLUT7-6) was 13.7 h and the “growth rate μ (mean)” value ([1]; strain GLUT7-7) was 0.239 h⁻¹. The “lag time tlag (mean)” value ([1]; strain GLUT7-7) was 8.5 h, the “growth rate μ (mean)” value ([1]; strain GLUT8-5) was 0.372 h⁻¹ and the “lag time tlag (mean)” value ([1]; strain GLUT8-5) was 17.3 h. For the same compound, the “growth rate μ (mean)” value ([1]; strain GLUT8-6) was 0.236 h⁻¹, the “lag time tlag (mean)” value ([1]; strain GLUT8-6) was 10.3 h and the “growth rate μ (mean)” value ([1]; strain GLUT8-9) was 0.224 h⁻¹. The “lag time tlag (mean)” value ([1]; strain GLUT8-9) was 12.0 h, the “growth rate μ (mean)” value ([1]; strain MG1655 (Table 26)) was 0.248 h⁻¹ and the “lag time tlag (mean)” value ([1]; strain MG1655 (Table 26)) was 13.4 h. For the same compound, the “growth rate μ (mean)” value ([1]; strain MG1655 (Table 27)) was 0.257 h⁻¹, the “lag time tlag (mean)” value ([1]; strain MG1655 (Table 27)) was 13.0 h and the “μ (mean)” value ([2]; growth rate of K-12 MG1655, 10 g/L diacid (sodium salt)) was 0.703 h^1. For the same compound, the “μ (mean)” value ([2]; growth rate of K-12 MG1655, 20 g/L diacid (sodium salt)) was 0.603 h^1, the “μ (mean)” value ([2]; growth rate of K-12 MG1655, 30 g/L diacid (sodium salt)) was 0.520 h^1 and the “μ (mean)” value ([2]; growth rate of K-12 MG1655, 40 g/L diacid (sodium salt)) was 0.320 h^1. The “μ (mean)” value ([2]; growth rate of K-12 MG1655, 50 g/L diacid (sodium salt)) was 0.117 h^1, the “tlag (mean)” value ([2]; lag time of K-12 MG1655, 10 g/L diacid (sodium salt)) was 5.8 h and the “tlag (mean)” value ([2]; lag time of K-12 MG1655, 20 g/L diacid (sodium salt)) was 7.0 h. The “tlag (mean)” value ([2]; lag time of K-12 MG1655, 30 g/L diacid (sodium salt)) was 9.4 h, the “tlag (mean)” value ([2]; lag time of K-12 MG1655, 40 g/L diacid (sodium salt)) was 14.1 h and the “tlag (mean)” value ([2]; lag time of K-12 MG1655, 50 g/L diacid (sodium salt)) was 29.9 h.
